Measured values published in paper PMC12376128, “In vitro and In Vivo Drug Metabolism Analysis of BPI-460372 - A Covalent TEAD1/3/4 Inhibitor” (Current Drug Metabolism, 2025).

Columns and labels:
human hepatocytes = experiment: Metabolism and metabolite formation in hepatocytes; details: human hepatocytes, 10 µM BPI-460372, 4 h incubation
Procedure: 10 µM BPI-460372 was incubated in five species (human, cynomolgus monkey, beagle dog, SD rat, and ICR mouse) hepatocytes (1 × 10^6 cells·min^-1) at 37 °C for 4 h. 7-EC, as positive control, was incubated for 0 h and 4 h. For blank control, hepatocytes were inactivated by adding ice-cold acetonitrile, and then the BPI-460372 solution was added. All the samples were duplicates. Incubations were stopped using the same volume of cold acetonitrile. The tube was vortexed, and the duplicate samples were combined. Metabolite profiling and identification of BPI-460372 were conducted by using UHPLC-Orbitrap-HRMS. The samples of 7-EC were analyzed by LC-MS/MS and then semi-quantified using the peak area ratio of analyte versus IS.
For hepatocyte metabolite identification, the different metabolites of BPI-460372 were detected using an ACQUITY UPLC HSS T3 column (1.8 µm, 100 mm × 2.1 mm) and ACQUITY UPLC BEH C18 column (1.7 µm, 100 mm × 2.1 mm) for rat and dog metabolite identification. The mobile phase contained a mixture of 0.1% formic acid in water (A) and 0.1% formic acid in acetonitrile (B). The gradient elution program was as follows: 0.0-1.0 min, 5% B; 1.0-7.0 min, 5%-30% B; 7.0-12.0 min, 30%-80% B; 12.0-16.0 min, 80%-95% B; 16.0-18.0 min, 95% B; 18.0-18.1 min, 95%-5% B. Then, 5% B from 18.1 to 20.0 min was maintained for equilibration. The flow rate was set to 0.5 mL/min, and the column temperature was kept at 40°C. Eluted fractions were monitored by a UV detector at 314 nm.

[1] = set-up: method as in doi:10.1158/1538-7445.AM2024-7575; details: cited from earlier work
rat hepatocytes = experiment: Metabolism and metabolite formation in hepatocytes; type: in vitro ADME, SD rat; details: SD rat hepatocytes, 10 µM BPI-460372, 4 h incubation
Description: All the samples were duplicates.

4-week toxicity study = type: in vivo; details: rats
CYP3A4 = experiment: Metabolic stability in HLMs with or without specific CYP inhibitor (ketoconazole); type: in vitro ADME, human; details: HLMs 1 mg protein/mL, substrate 1 μM, ketoconazole 20 µM
Procedure: (§1) Before starting the experiments, the HLMs were thawed gently on ice. Metabolic stability incubations were performed at 37 °C. The incubations contained 100 mM phosphate buffer saline (PBS, pH 7.4), HLMs (1 mg protein·mL^-1), dimethyl sulfoxide (DMSO, blank control) or a selective CYP inhibitor, and BPI-460372 or positive control substrates (final incubation concentration, 1 μM). The incubation process started with the addition of NADPH (1 mM final concentration) after a 5-minute preincubation period. The chemical inhibitors were as follows: a-naphthoflavone (2 µM) for CYP1A2, ticlopidine (20 µM) for 2B6, quercetin (20 µM) for CYP2C8, sulfaphenazole (20 µM) for CYP2C9, ticlopidine (200 µM) for CYP2C19, quinidine (20 µM) for CYP2D6, and ketoconazole (20 µM) for CYP3A [9]. Aliquots were maintained in acetonitrile containing internal standard (IS) at various time points, such as 0 min, 5 min, 10 min, 20 min, 30 min, and 60 min. All incubations were performed in triplicate, and the concentration in the supernatant was determined by liquid chromatography-tandem mass spectrometry (LC-MS/MS).
(§2) The elimination rate constant k (min^-1) was obtained by linear regression from the natural logarithm of the […] of the parent drug and the incubation time. The inhibition rate was calculated using equation 1 [10]: […]

CYP2D6 = CYP2D6 (Homo sapiens, UniProt P10635); experiment: Metabolic stability in HLMs with or without specific CYP inhibitor (quinidine); type: in vitro ADME; set-up: HLMs (1 mg protein·mL^-1); tissue BioIVT; host or cells: pooled human liver microsomes; details: HLMs 1 mg protein/mL, substrate 1 μM, quinidine 20 µM
Sequence of CYP2D6 (P10635 whole entry): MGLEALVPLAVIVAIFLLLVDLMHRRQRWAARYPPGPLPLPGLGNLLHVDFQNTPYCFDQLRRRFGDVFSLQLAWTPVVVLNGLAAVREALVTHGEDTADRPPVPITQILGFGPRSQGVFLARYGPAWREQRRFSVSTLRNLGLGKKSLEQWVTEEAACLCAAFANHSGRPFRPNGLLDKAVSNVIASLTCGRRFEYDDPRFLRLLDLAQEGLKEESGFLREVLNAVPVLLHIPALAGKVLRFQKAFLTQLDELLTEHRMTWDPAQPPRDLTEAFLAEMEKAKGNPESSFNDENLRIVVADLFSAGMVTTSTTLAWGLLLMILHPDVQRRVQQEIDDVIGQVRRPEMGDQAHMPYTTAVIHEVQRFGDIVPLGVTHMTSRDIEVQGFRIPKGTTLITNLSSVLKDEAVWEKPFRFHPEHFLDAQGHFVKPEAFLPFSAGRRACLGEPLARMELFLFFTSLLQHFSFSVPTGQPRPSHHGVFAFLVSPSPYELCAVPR
Procedure: as §1, §2

Stability in plasma [2] = type: in vitro ADME; details: human plasma, 37°C, 4 h
Stability in plasma [3] = type: in vitro ADME; details: dog plasma, 37°C, 4 h
TEAD proteins = system: TEAD proteins; set-up: method as in doi:10.1158/1538-7445.AM2023-501; details: cited from earlier work
TEAD palmitoylation = system: TEAD palmitoylation; set-up: method as in doi:10.1158/1538-7445.AM2023-501; details: cited from earlier work
CYP2B6 = target: T1, CYP2B6 (Homo sapiens, UniProt P20813); experiment: Metabolic stability in HLMs with or without specific CYP inhibitor (ticlopidine 20 µM); type: in vitro ADME; details: HLMs 1 mg protein/mL, substrate 1 μM
T1 construct: HLMs (1 mg protein·mL^-1); tissue BioIVT; host or cells: pooled human liver microsomes
T1 sequence (P20813 1-491): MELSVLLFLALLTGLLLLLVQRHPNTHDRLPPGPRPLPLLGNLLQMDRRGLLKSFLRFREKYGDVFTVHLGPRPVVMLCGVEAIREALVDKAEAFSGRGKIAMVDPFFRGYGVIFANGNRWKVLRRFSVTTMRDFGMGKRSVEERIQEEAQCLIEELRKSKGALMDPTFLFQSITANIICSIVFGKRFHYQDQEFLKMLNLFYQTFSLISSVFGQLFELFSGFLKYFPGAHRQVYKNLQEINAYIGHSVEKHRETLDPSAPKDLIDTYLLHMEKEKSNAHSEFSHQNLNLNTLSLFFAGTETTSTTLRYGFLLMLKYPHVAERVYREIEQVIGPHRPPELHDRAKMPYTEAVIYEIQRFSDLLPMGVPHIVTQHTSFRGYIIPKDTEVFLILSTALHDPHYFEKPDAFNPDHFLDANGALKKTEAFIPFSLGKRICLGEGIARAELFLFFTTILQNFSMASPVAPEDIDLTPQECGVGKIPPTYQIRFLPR
Procedure: as §1, with “The incubations contained 100 mM phosphate buffer saline (PBS, pH 7.4), HLMs (1 mg protein·mL^-1), dimethyl sulfoxide (DMSO, blank control) or a selective CYP inhibitor, and BPI-460372 or positive control substrates (final incubation concentration, 1 μM).” left out
as §2

For C=C(F)C(=O)N1CC(n2c(=O)n(-c3ccc(C(F)(F)F)cc3)c3nccnc32)C1 [BPI-460372], the “UV (314 nm) Peak Areas Relative Abundance” value (human hepatocytes) is listed as 76.96%, the Preliminary efficacy ([1]; patients with malignant mesothelioma, lung adenocarcinoma, and lung squamous cell carcinoma) is listed as “preliminary efficacy was observed” and the Safety profile ([1]; solid tumor patients) is listed as “good safety profile”. For the same compound, the “UV (314 nm) Peak Areas Relative Abundance” value (rat hepatocytes) was 70.87%, the Main target organs (4-week toxicity study) was “kidney” and the “Inhibition Rate” value (CYP3A4) was 9.1%. For the same compound, the “Inhibition Rate” value (CYP2D6) was 17.0%, the Stability in plasma (Stability in plasma [2]) was “stable” and the Stability in plasma (Stability in plasma [3]) was “stable”. The “Covalent binding to TEAD1/3/4” value (TEAD proteins; 2-fluoro acrylamide warhead) was “covalently bind to the Cys-368 residue”, the Off-target covalent binding (TEAD proteins) was “without significant off-target covalent binding affinity” and the “Inhibition of the palmitoylation of TEADs” value (TEAD palmitoylation) was “inhibit the palmitoylation”. The “Inhibition Rate” value (CYP2B6) was -11.5%.
